Measurements published in the NIST ThermoML archive (doi:10.1021/acs.jced.6b00523).
“And” between values parts separate entries of the source, which are not always exact repeats. Equal entries are not always repeated. ± gives the expanded uncertainty stated by the source.

Tests used:
[1] = Closed cell (Static) method
[2] = Boiling temperature at pressure P; details: 100 kPa; Glass; DTA
[3] = Solid-liquid equilibrium temperature; details: 100 kPa, DTA
[4] = Molar enthalpy of transition or fusion; details: DSC

CCCCCCCCCC [decane]
[1], Liquid
Details | vapor or sublimation pressure
276.76 K | 0.03526 ± 0.00088 kPa
276.77 K | 0.03527 ± 0.00088 kPa and 0.03532 ± 0.00088 kPa
279.78 K | 0.0452 ± 0.001 kPa
279.79 K | 0.04525 ± 0.001 kPa
282.92 K | 0.0583 ± 0.0013 kPa and 0.05835 ± 0.0013 kPa
282.93 K | 0.05835 ± 0.0013 kPa
285.13 K | 0.06951 ± 0.0015 kPa
285.16 K | 0.06967 ± 0.0015 kPa
285.18 K | 0.06981 ± 0.0015 kPa
288.76 K | 0.0915 ± 0.0019 kPa and 0.09155 ± 0.0019 kPa
288.77 K | 0.09159 ± 0.0019 kPa
292.21 K | 0.1188 ± 0.0023 kPa
292.22 K | 0.1188 ± 0.0023 kPa
294.67 K | 0.1405 ± 0.0024 kPa
301.29 K | 0.2229 ± 0.0034 kPa
301.38 K | 0.2242 ± 0.0034 kPa and 0.2243 ± 0.0034 kPa
303.84 K | 0.2659 ± 0.0039 kPa
303.85 K | 0.266 ± 0.0039 kPa and 0.2661 ± 0.0039 kPa
307.33 K | 0.3327 ± 0.0047 kPa and 0.3328 ± 0.0047 kPa
315.2 K | 0.5466 ± 0.0073 kPa
315.21 K | 0.5467 ± 0.0073 kPa
319.09 K | 0.6901 ± 0.0091 kPa
319.11 K | 0.6907 ± 0.0091 kPa and 0.6909 ± 0.0091 kPa
320.85 K | 0.7646 ± 0.01 kPa and 0.7649 ± 0.01 kPa and 0.765 ± 0.01 kPa
324.98 K | 0.9683 ± 0.012 kPa
324.99 K | 0.9687 ± 0.013 kPa
325 K | 0.9687 ± 0.013 kPa
326.41 K | 1.049 ± 0.013 kPa
330.79 K | 1.33 ± 0.016 kPa and 1.331 ± 0.016 kPa
330.8 K | 1.332 ± 0.016 kPa
331.92 K | 1.414 ± 0.017 kPa
331.93 K | 1.415 ± 0.017 kPa

O=C(c1ccccc1)c1ccccc1 [benzophenone]
[1]
Details | vapor or sublimation pressure
293.08 K, Crystal | 4.2e-05 kPa
293.09 K, Crystal | 4.6e-05 kPa
293.1 K, Crystal | 4.1e-05 kPa
293.11 K, Metastable liquid | 8.1e-05 kPa and 8.4e-05 kPa and 8.5e-05 kPa
296.29 K, Crystal | 6.8e-05 ± 0.00011 kPa and 6.9e-05 ± 0.00011 kPa
296.3 K, Crystal | 6.7e-05 ± 0.00011 kPa
298.44 K, Crystal | 9.2e-05 ± 0.00011 kPa and 9.3e-05 ± 0.00011 kPa
298.45 K, Crystal | 9e-05 ± 0.00011 kPa
298.48 K, Metastable liquid | 0.000153 kPa and 0.000157 kPa and 0.000158 kPa
300.55 K, Crystal | 0.000124 ± 0.00011 kPa
300.56 K, Crystal | 0.000118 ± 0.00011 kPa and 0.000119 ± 0.00011 kPa
302.13 K, Metastable liquid | 0.000217 kPa and 0.000221 kPa
302.14 K, Metastable liquid | 0.000217 kPa
303.2 K, Crystal | 0.000168 ± 0.00011 kPa
303.22 K, Crystal | 0.000166 ± 0.00011 kPa
303.25 K, Crystal | 0.000165 ± 0.00011 kPa
306.93 K, Crystal | 0.000263 ± 0.00012 kPa and 0.000265 ± 0.00012 kPa and 0.000267 ± 0.00012 kPa
307.46 K, Metastable liquid | 0.000382 ± 0.00012 kPa
307.48 K, Metastable liquid | 0.000376 ± 0.00012 kPa and 0.00038 ± 0.00012 kPa
309.05 K, Crystal | 0.000338 ± 0.00012 kPa and 0.00034 ± 0.00012 kPa and 0.000345 ± 0.00012 kPa
311.1 K, Crystal | 0.000431 ± 0.00012 kPa and 0.000434 ± 0.00012 kPa and 0.000435 ± 0.00012 kPa
312.77 K, Metastable liquid | 0.000631 ± 0.00012 kPa
312.78 K, Metastable liquid | 0.000635 ± 0.00012 kPa and 0.000637 ± 0.00012 kPa
314.3 K, Crystal | 0.000629 ± 0.00012 kPa and 0.000632 ± 0.00012 kPa and 0.000635 ± 0.00012 kPa
317.33 K, Crystal | 0.000891 ± 0.00013 kPa
317.34 K, Crystal | 0.000892 ± 0.00013 kPa and 0.000899 ± 0.00013 kPa
318.05 K, Metastable liquid | 0.001035 ± 0.00013 kPa and 0.001036 ± 0.00013 kPa and 0.001039 ± 0.00013 kPa
319.4 K, Crystal | 0.00113 ± 0.00013 kPa
319.41 K, Crystal | 0.001128 ± 0.00013 kPa and 0.001131 ± 0.00013 kPa
320.42 K, Crystal | 0.001256 ± 0.00013 kPa and 0.001265 ± 0.00013 kPa and 0.001267 ± 0.00013 kPa
320.95 K, Crystal | 0.001353 ± 0.00014 kPa and 0.001356 ± 0.00014 kPa and 0.001362 ± 0.00014 kPa
323.33 K, Metastable liquid | 0.001658 ± 0.00014 kPa and 0.00166 ± 0.00014 kPa and 0.001661 ± 0.00014 kPa
333.79 K, Liquid | 0.003974 ± 0.0002 kPa and 0.003975 ± 0.0002 kPa and 0.003979 ± 0.0002 kPa
338.9 K, Liquid | 0.005953 ± 0.00027 kPa and 0.005954 ± 0.00027 kPa and 0.005968 ± 0.00027 kPa
344.09 K, Liquid | 0.008882 ± 0.00037 kPa and 0.00889 ± 0.00037 kPa and 0.008894 ± 0.00037 kPa
349.19 K, Liquid | 0.0129 ± 0.00052 kPa and 0.01291 ± 0.00052 kPa and 0.01293 ± 0.00052 kPa
354.35 K, Liquid | 0.01864 ± 0.0006 kPa and 0.01865 ± 0.0006 kPa and 0.01866 ± 0.0006 kPa
359.4 K, Liquid | 0.02628 ± 0.00073 kPa and 0.02629 ± 0.00073 kPa and 0.02631 ± 0.00073 kPa
364.47 K, Liquid | 0.03673 ± 0.00091 kPa
364.48 K, Liquid | 0.03672 ± 0.00091 kPa

Details | Boiling temperature at pressure P [°C]
[2] | -61 ± 1

Details | Molar enthalpy of transition or fusion, [4] [kJ/mol] | Solid-liquid equilibrium temperature, [3] [K]
Crystal | 18.6 ± 0.5 | 321.3 ± 0.3
Metastable crystal | 14.5 ± 0.4 | 298.3 ± 0.3
